From ChEMBL document CHEMBL1136273, “Design and synthesis of factor Xa inhibitors and their prodrugs” (Bioorg Med Chem Lett, 2003) come the findings set out here.

The structures appear in SMILES notation.

Sequence of Coagulation factor X (P00742 41-179 limits assumed): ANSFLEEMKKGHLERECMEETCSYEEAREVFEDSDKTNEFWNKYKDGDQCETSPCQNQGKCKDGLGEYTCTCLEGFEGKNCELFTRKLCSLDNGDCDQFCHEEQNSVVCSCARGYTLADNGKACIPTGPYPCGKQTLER
Sequence of Coagulation factor X (P00742 235-488 limits assumed): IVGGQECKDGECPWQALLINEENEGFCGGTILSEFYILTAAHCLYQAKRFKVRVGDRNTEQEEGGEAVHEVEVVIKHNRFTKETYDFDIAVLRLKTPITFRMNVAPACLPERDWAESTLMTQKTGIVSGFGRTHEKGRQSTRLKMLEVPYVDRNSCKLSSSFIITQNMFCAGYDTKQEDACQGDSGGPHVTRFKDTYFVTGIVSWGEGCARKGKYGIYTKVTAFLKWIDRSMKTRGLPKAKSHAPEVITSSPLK

System in the first series: not listed separately
As to the kind of experiment: Cmax in rats. The settings on record: rat, in vivo. Type of series: ADME, organism-based.
`C/C(=C(\F)C(=O)Nc1ccc(-c2ccccc2S(N)(=O)=O)cc1Br)c1cccc(C(=N)NO)c1` had a Cmax of 630 ng/mL.

`C/C(=C(\F)C(=O)Nc1ccc(-c2ccccc2S(N)(=O)=O)cc1Br)c1cccc(C(=N)N)c1` showed a Cmax of 168 ng/mL.

System in a further series: not listed separately
As to the kind of experiment: Oral bioavailability in dog. Type of series: ADME, organism-based, Canis lupus familiaris. The settings on record: in vivo.
The molecule `N=C(NO)c1cccc(/C(=C(/F)C(=O)Nc2ccc(-c3ccccc3S(N)(=O)=O)cc2)n2cccn2)c1` had a bioavailability of 25%.

In turn, `N=C(N)c1cccc(/C(=C(/F)C(=O)Nc2ccc(-c3ccccc3S(N)(=O)=O)cc2)n2cccn2)c1` gave a bioavailability below 5%.

Another series has as its target Coagulation factor X (Homo sapiens, UniProt P00742). Description: Inhibitory concentration to coagulation factor X.
Settings: not given
`C/C(=C(\F)C(=O)Nc1ccc(-c2ccccc2S(N)(=O)=O)cc1Br)c1cccc(C(=N)NO)c1` returned an IC50 of 1180 nM.

Turning to `CC(c1cccc(C(=N)N)c1)C1CC(=O)N(c2ccc(-c3ccccc3S(N)(=O)=O)cc2)C1=O` (stereo unspecified), the midpoint of inhibition, the IC50, lay at 120 nM.

On to `N=C(NO)c1cccc(/C(=C(/F)C(=O)Nc2ccc(-c3ccccc3S(N)(=O)=O)cc2)n2cccn2)c1`, for which the midpoint of inhibition, the IC50, lay at 3790 nM. This IC50 is about 32-fold higher than that of the molecule before.

Molecule `C/C(=C(\F)C(=O)Nc1ccc(-c2ccccc2S(N)(=O)=O)cc1)c1cccc(C(=N)NO)c1` had a 50% inhibitory concentration (IC50) of 440 nM.

Molecule `C/C(=C(\F)C(=O)Nc1ccc(-c2ccccc2S(N)(=O)=O)cc1)c1cccc(C(=N)NC#N)c1` registered an IC50 of 253 nM.

In turn, `C/C(=C(\F)C(=O)Nc1ccc(-c2ccccc2S(N)(=O)=O)cc1)c1cccc(C(=N)NNc2ccccc2)c1` came in with an IC50 of 750 nM. Compared with the last molecule, the IC50 is about 3-fold higher.

`C/C(=C(\F)C(=O)Nc1ccc(-c2ccccc2S(N)(=O)=O)cc1F)c1cccc(C(=N)NO)c1` returned a 50% inhibitory concentration (IC50) of 1590 nM.

With `C/C(=C(\F)C(=O)Nc1ccc(-c2ccccc2S(N)(=O)=O)cc1)c1cccc(C(=N)NN(C)C)c1`, the IC50 worked out at 490 nM.

`C/C(=C(\F)C(=O)Nc1ccc(-c2ccccc2S(N)(=O)=O)cc1)c1ccc2[nH]nc(N)c2c1` had a half-inhibitory concentration (IC50) of 5910 nM.

`N=C(N)c1cccc(/C(=C(/F)C(=O)Nc2ccc(-c3ccccc3S(N)(=O)=O)cc2)n2cccn2)c1` registered an IC50 of 1 nM.

`C/C(=C(\F)C(=O)Nc1ccc(-c2ccccc2S(N)(=O)=O)cc1Br)c1cccc(C(=N)NN)c1` registered an IC50 of 57 nM.

Take `C/C(=C1\CC(=O)N(c2ccc(-c3ccccc3S(N)(=O)=O)cc2)C1=O)c1cccc(C(=N)NN)c1`: 78 nM corresponded to half-maximal inhibition (IC50).

In turn, `C/C(=C(\F)C(=O)Nc1ccc(-c2ccccc2S(N)(=O)=O)cc1)c1cccc(C(=N)N2CCC2)c1` came in with a half-maximal inhibitory concentration (IC50) of 890 nM.

Molecule `C/C(=C(\F)C(=O)Nc1ccc(-c2ccccc2S(N)(=O)=O)cc1Cl)c1cccc(C(=N)NN)c1` registered an IC50 of 41 nM.

For `C/C(=C1\CC(=O)N(c2ccc(C(=O)N3CCCC3)cc2)C1=O)c1cccc(C(=N)N)c1`, the IC50 was determined as 180 nM.

Molecule `C/C(=C(\F)C(=O)Nc1ccc(-c2ccccc2S(N)(=O)=O)cc1Cl)c1cccc(C(=N)NO)c1` yielded a concentration for half-maximal inhibition (IC50) of 750 nM. This IC50 lies about 4.2-fold higher than the previous one.

In turn, `C/N=C(\N)c1cccc(/C(C)=C(/F)C(=O)Nc2ccc(-c3ccccc3S(N)(=O)=O)cc2)c1` gave an IC50 of 890 nM.

The molecule `CNNC(=N)c1cccc(/C(C)=C2/CC(=O)N(c3ccc(-c4ccccc4S(N)(=O)=O)cc3)C2=O)c1` yielded an IC50 of 48 nM.

The molecule `C/C(=C1\CC(=O)N(c2ccc(-c3ccccc3S(N)(=O)=O)cc2)C1=O)c1cccc(C(=N)NO)c1` came in with an IC50 of 710 nM.

On to `C/C(=C1\CC(=O)N(c2ccc(C(C)(C)C)cc2)C1=O)c1cccc(C(=N)N)c1`, for which the IC50 turned out to be 29 nM.

Take `CNNC(=N)c1cccc(/C(C)=C(/F)C(=O)Nc2ccc(-c3ccccc3S(N)(=O)=O)cc2)c1`: it took 28 nM to reach half-maximal inhibition (IC50).

On to `C/C(=C(\F)C(=O)Nc1ccc(-c2ccccc2S(N)(=O)=O)cc1F)c1cccc(C(=N)NN)c1`, for which the half-maximal inhibitory concentration (IC50) worked out at 110 nM.

`C/C(=C(\F)C(=O)Nc1ccc(-c2ccccc2S(N)(=O)=O)cc1)c1cccc(C(=N)NNCC(F)(F)F)c1`: the midpoint of inhibition, the IC50, lay at 420 nM.

In a further series the target is Prothrombin (Homo sapiens, UniProt P00734). As to the kind of experiment: Inhibitory concentration required against Thrombin.
Settings: not given
In turn, `C/C(=C1\CC(=O)N(c2ccc(-c3ccccc3S(N)(=O)=O)cc2)C1=O)c1cccc(C(=N)N)c1` registered a concentration for half-maximal inhibition (IC50) of 670 nM.

For `C/C(=C1\CC(=O)N(c2ccc(C(=O)N3CCCC3)cc2)C1=O)c1cccc(C(=N)N)c1`, the 50% inhibitory concentration (IC50) is 10700 nM.

`C/C(=C1\CC(=O)N(c2ccc(C(C)(C)C)cc2)C1=O)c1cccc(C(=N)N)c1` displayed a half-inhibitory concentration (IC50) of 76 nM. This IC50 lies about 140-fold lower than the previous one.

`C/C(=C(\CC(N)=O)C(=O)Nc1ccc(-c2ccccc2S(N)(=O)=O)cc1)c1cccc(C(=N)N)c1`: half-maximal inhibition (IC50) required 1600 nM.

The Cmax is the peak of the concentration-time curve. A word on the bioavailability: it is the share of a dose that reaches the circulation, judged against a reference dose that is usually intravenous. A low value points to poor availability. For orientation: IC50 means the concentration that inhibits the measured activity by half. Read a low IC50 as greater potency in that assay.
